Results reported in patent publication US9499729B2, “Compositions and methods containing fluorine substituted olefins” (HONEYWELL INTERNATIONAL INC., priority 2006, dated 2016).

What was measured:
[1] = Toxicity as stated by applicants (no method given)
[2] = Miscibility with refrigeration lubricants, sealed glass tubes, visual observation of liquid phases; assay type: physicochemical
Experimental: The miscibility of HFO-1225ye and HFO-1234ze with various refrigeration lubricants is tested. […] For each refrigerant/oil combination, three compositions are tested, namely 5, 20 and 50 weight percent of lubricant, with the balance of each being the compound of the present invention being tested
The lubricant compositions are placed in heavy-walled glass tubes. The tubes are evacuated, the refrigerant compound in accordance with the present invention is added, and the tubes are then sealed. The tubes are then put into an air bath environmental chamber, the temperature of which is varied from about −50° C. to 70° C. At roughly 10° C. intervals, visual observations of the tube contents are made for the existence of one or more liquid phases.

[3] = Flammability / flammability limit (ASTM E-681); assay type: physicochemical
Experimental: Flammability is another important property for many applications. That is, it is considered either important or essential in many applications, including particularly in heat transfer and blowing agent applications, to use compositions which are of low flammability or are non-flammable. Thus, it is frequently beneficial to use in such compositions compounds which are nonflammable. As used herein, the term “nonflammable” refers to compounds or compositions which are determined to be nonflammable as determined in accordance with ASTM standard E-681, dated 2002, which is incorporated herein by reference. Unfortunately, many HFC's which might otherwise be desirable for used in refrigerant or foam blowing agent compositions are not nonflammable. For example, the fluoroalkane difluoroethane (HFC-152a) and the fluoroalkene 1,1,1-trifluorpropene (HFO-1243zf) are each flammable and therefore not viable for use in many applications.

[4] = Solubility of Jasmone in the fluoroolefin, sealed glass tube, frozen and thawed; assay type: physicochemical
Experimental: The compositions of the present invention also provide advantage when used as part of, and in particular as a carrier for, flavor formulations and fragrance formulations. […] 1.73 grams of R-1234ze were added to the glass tube. The tube was then frozen and sealed. […] The solution contained 20 wt. % Jasome and 80 wt. % R-1234ze, thus establishing favorable use a carrier for flavor formulations and fragrances. It also establishes its potential as an extractant of biologically active compounds (such as Biomass) and fragrances, including from plant matter. In certain embodiments, it may be preferred to use the present composition for in extraction applications with the present fluid in its supercritical state. This an other applications of involving use of the present compositions in the supercritical or near supercritical state are described hereinafter.
Approximately 0.39 grams of Jasmone were put into a heavy walled glass tube and approximately 1.73 grams of transHFC-1233zd were added to the glass tube. The tube was then frozen and sealed. […] The solution contained about 20 wt. % Jasome and about 80 wt. % transHFCO-1233zd.
Approximately 0.39 grams of Jasmone are put into a heavy walled glass tube and approximately 1.73 grams of cisHFC-1233zd are added to the glass tube. The tube is then frozen and sealed. […] The solution contains about 20 wt. % Jasmone and about 80 wt. % cisHFCO-1233zd.

[5] = Dissolution of silicone lubricant in the solvent; assay type: physicochemical; conditions: silicone oil added to a concentration of about 10 weight percent
Experimental: A compound of Formula II, namely, transHFCO-1233zd was transferred to a glass container. A silicon lubricant, particularly a high-viscosity (12,500 cP) silicone oil, was added to the transHFCO-1233zd solvent to a concentration of about 10 weight percent.
A compound of Formula II, namely, cisHFCO-1233zd is transferred to a glass container. A silicon lubricant, particularly a high-viscosity (12,500 cP) silicone oil is added to the cisHFCO-1233zd solvent to a concentration of about 10 weight percent.
(§1) A combination of transHFCO-1233zd and trans-1,2-dichloroethylene are prepared in transHFCO-1233zd:trans-1,2-dichloroethylene weight ratios of 25:75 and 50:50. Each combination is then added to a glass container. A silicon lubricant, particularly a high-viscosity (12,500 cP) silicone oil is added to each solvent to a concentration of about 10 weight percent.
as §1, with “cisHFCO-1233zd” for “transHFCO-1233zd”, “cisHFCO-1233zd:trans-1,2-dichloroethylene” for “transHFCO-1233zd:trans-1,2-dichloroethylene”

[6] = Dissolution of synthetic PAG lubricant in the solvent; assay type: physicochemical; conditions: PAG lubricant ND-8; combinations in approximate weight ratios: /methanol 98:2, /pentane 96:4, /methanol/pentane 92:2:6
Experimental: A synthetic lubricant, specifically polyalkyleneglycol (PAG) lubricant, and more specifically a PAG consisting essentially of 2 or more oxypropylene groups and having a viscosity of from about 10 to about 200 centistokes at about 37° C. (sold under the trade designation ND-8 by Idemitsu Kosan) are added to a vial containing transHFCO-1233zd. […] The properties of the synthetic lubricant ND-8 are identified below in Table 11 below.
A synthetic lubricant, specifically polyalkyleneglycol (PAG) lubricant, and more specifically a PAG consisting essentially of 2 or more oxypropylene groups and having a viscosity of from about 10 to about 200 centistokes at about 37° C. (sold under the trade designation ND-8 by Idemitsu Kosan) are added to a vial containing cisHFCO-1233zd.
The PAG lubricant described in Example 45 above is added to vials containing, respectively, transHFCO-1233zd/methanol in an approximate 98:2 weight ratio, transHFCO-1233zd/pentane in an approximate 96:4 weight ration and transHFCO-1233zd/methanol/pentane in an approximate 92:2:6 weight ratio.
The PAG lubricant described in Example 45 above is added to vials containing, respectively, cisHFCO-1233zd/methanol in an approximate 98:2 weight ratio, cisHFCO-1233zd/pentane in an approximate 96:4 weight ration and cisHFCO-1233zd/methanol/pentane in an approximate 92:2:6 weight ratio.

[7] = Compatibility/stability of refrigerant with lubricating oil in contact with aluminum, copper and steel coupons, sealed tube, one week, visual observation; assay type: physicochemical; conditions: one week at 350° C., liquid contents turn black
Experimental: The compatibility of the refrigerant compounds and compositions of the present invention with PAG lubricating oils while in contact with metals used in refrigeration and air conditioning systems is tested at 350° C., representing conditions much more severe than are found in many refrigeration and air conditioning applications.
Aluminum, copper and steel coupons are added to heavy walled glass tubes. Two grams of oil are added to the tubes. The tubes are then evacuated and one gram of refrigerant is added. The tubes are put into an oven at 350° F. for one week and visual observations are made. At the end of the exposure period, the tubes are removed.
This procedure was done for the following combinations of oil and the compound of the present invention: • a) HFC-1234ze and GM Goodwrench PAG oil • b) HFC1243 zf and GM Goodwrench oil PAG oil • c) HFC-1234ze and MOPAR-56 PAG oil • d) HFC-1243 zf and MOPAR-56 PAG oil • e) HFC-1225 ye and MOPAR-56 PAG oil.
Aluminum, copper and steel coupons are added to a heavy walled glass tube with mineral oil and CFC-12 and heated for one week at 350° C., as in Example 3. At the end of the exposure period, the tube is removed and visual observations are made.

[8] = Solubility of Artemisinin in the extractant, solvent added to weighed sample until dissolved; assay type: physicochemical
Excerpt: A medicament, particularly a plant-derived Artemisinin which is an anti-malarial drug, is extracted from the Artemisia annua plant. A sample of Artemisinin was weighed into a vial.

SMILES: FC=C(F)C(F)(F)F [HFO-1225ye, 1,1,1,2,3 pentafluoropropene]
- degree of toxicity in comparison to CF3CH═CF2 (HFO-1225zc) ([1]; pentafluoropropene with a hydrogen substituent on the terminal unsaturated carbon): relatively low degree of toxicity
- miscibility with polyalkylene glycol ([2]; 50 weight percent concentration of the PAG in refrigerant, at 60°): miscible
- miscibility with polyalkylene glycol ([2]; at 70° C., from 5 to 50 weight percent lubricant in refrigerant): miscible
- miscibility with polyalkylene glycol ([2]; from −20 to 50° C.): partially miscible
- miscibility with polyalkylene glycol ([2]; temperature range of −50° C. to −30° C.): immiscible

SMILES: FC=CC(F)(F)F [HFO-1234ze, 1,1,1,3-tetrafluoropropene]
- toxicity [1]: relatively low toxicity
- flammability [3]: relatively low flammability

SMILES: CC/C=C\CC1=C(C)CCC1=O [Jasmone]
- liquid phases of mixture with R-1234ze upon thawing ([4]; 0.39 grams Jasmone and 1.73 grams R-1234ze: 20 wt. % Jasmone, 80 wt. % R-1234ze): one liquid phase
- solubility in cisHFCO-1233zd (soluble up to) ([4]; solvent cisHFCO-1233zd, one liquid phase): about 20 weight percent
- solubility in transHFCO-1233zd (soluble up to) ([4]; solvent transHFCO-1233zd, one liquid phase): about 20 weight percent

SMILES: FC(F)(F)/C=C\Cl [transHFCO-1233zd, 1,1,1-trifluo,3-chlororopropene]
- solution formed with silicone oil [5]: homogeneous, single-phase solution
- concentration of PAG at which a homogeneous, single-phase solution is formed [6]: greater than 10 % by weight

SMILES: FC(F)(Cl)Cl [CFC-12, Dichlorodifluoromethane]
- visual observation of tube contents (stability with mineral oil and metals) [7]: severe decomposition

SMILES: C[C@@H]1CC[C@H]2[C@@H](C)C(=O)O[C@@H]3O[C@@]4(C)CC[C@@H]1[C@]32OO4 [Artemisinin]
- solubility in cisHFCO-1233zd (soluble up to) ([8]; solvent cisHFCO-1233zd): approximately 3 weight percent
- solubility in transHFCO-1233zd (soluble up to) ([8]; solvent transHFCO-1233zd): approximately 3 weight percent

SMILES: FC(F)(F)C=CCl [HCFO-1233zd, 1,1,1-trifluo-3,chloro-propene]
- toxicity [1]: relatively low toxicity
- flammability [3]: relatively low flammability
